Experimental data taken from patent US10745377B2, “Piperidine or piperazine linked imidazole and triazole derivatives and methods of use” (MERCK SHARP & DOHME CORP., priority 2013, dated 2020).
Read-outs that look alike come from different tables or passages of the source.

Legend:
Format in all cases: biochemical
[1] = biological target: T1, CYP2C9 (Homo sapiens, UniProt P11712); assay: Cocktail assay for CYPs in human liver microsomes: CYP2C9 (diclofenac 4′-hydroxylation); details: 5 μM diclofenac, 10 min at 37° C., 6 concentrations up to 10 μM
T1 construct: 0.1 mg/mL protein human liver microsomes (BD Gentest); tissue BD Gentest; host or cells: human liver microsomes
Description: (§1) Determination of IC50 in a Cocktail Assay for CYPs 1A2, 2C9, 2C19, 2D6 and 3A4
(§2) This assay was performed in a standard 96-well plate design. […] The incubation substrate mix contains 10 μM phenacetin (1A2), 5 μM diclofenac (2C9), 30 μM mephenytoin (2C19), 5 μM dextromethorphan (2D6) and 2 μM midazolam (3A4), 0.1 mg/mL protein human liver microsomes (BD Gentest), 1 mM NAPDH, 3.3 mM MgCl2 and 100 mM potassium phosphate buffer (pH 7.4). The production of the metabolite of each probe substrate was determined after incubation for 10 min at 37° C. Quantitation of the metabolite peak area ratio against an internal standard (tolbutamide) was determined by LC/MS/MS analysis following acetonitrile treatment of the incubations.
(§3) Samples were analyzed in the MRM mode with a SCIEX API-4000 mass spectrometer (Applied Biosystems, Foster City, Calif.), with a Shimadzu LC-20 AD pump (Shimadzu corporation, Kyoto, JP) and a CTC PAL autosampler (Agilent Technologies, Switzerland). A Phenomenex, Luna, 5 μm, 100 A, 2.00×30 mm HPLC column was used for the separation. The mobile phases were: (A) 0.1% formic acid in water and (B) 0.1% formic acid in acetonitrile. The binary gradient was as follows.
(§4) The mass spectrum parameters were as follows:
(§5) The LC/MS/MS parameters for the analytes were as follows.
(§6) The peak area ratio of the analyte to the internal standard was used to quantify the metabolite. The values of peak area ratios in the presence of test compound were compared to those of maximum or minimum controls and were expressed as % inhibition by interpolating between the maximum and minimum peak area ratios. Incubations with no inhibitor were defined as the maxima.
(§7) The following equation was used to calculate the % inhibition: [1−[(X−Low control)/(High control−Low control)]]*100
(§8) For the IC50 calculation, SigmaPlot was used to plot the mean % inhibition versus the test compound concentrations and for non-linear regression analysis of the data. Depending on the range of data points defining the inhibition curve, the data may have been fit to the 4-parameter logistic equation.

[2] = biological target: T2, CYP2C19 (Homo sapiens, UniProt P33261); assay: Cocktail assay for CYPs in human liver microsomes: CYP2C19 (mephenytoin 4′-hydroxylation); details: 30 μM mephenytoin, 10 min at 37° C., 6 concentrations up to 10 μM
T2 construct: 0.1 mg/mL protein human liver microsomes (BD Gentest); tissue BD Gentest; host or cells: human liver microsomes
Description: as §1, §2, §3, §4, §5, §6, §7, §8

[3] = biological target: T3, CYP1A2 (Homo sapiens, UniProt P05177); assay: Cocktail assay for CYPs in human liver microsomes: CYP1A2 (phenacetin O-deethylation)
T3 construct: 0.1 mg/mL protein human liver microsomes (BD Gentest); tissue BD Gentest; host or cells: human liver microsomes
T3 sequence (P05177 1-516): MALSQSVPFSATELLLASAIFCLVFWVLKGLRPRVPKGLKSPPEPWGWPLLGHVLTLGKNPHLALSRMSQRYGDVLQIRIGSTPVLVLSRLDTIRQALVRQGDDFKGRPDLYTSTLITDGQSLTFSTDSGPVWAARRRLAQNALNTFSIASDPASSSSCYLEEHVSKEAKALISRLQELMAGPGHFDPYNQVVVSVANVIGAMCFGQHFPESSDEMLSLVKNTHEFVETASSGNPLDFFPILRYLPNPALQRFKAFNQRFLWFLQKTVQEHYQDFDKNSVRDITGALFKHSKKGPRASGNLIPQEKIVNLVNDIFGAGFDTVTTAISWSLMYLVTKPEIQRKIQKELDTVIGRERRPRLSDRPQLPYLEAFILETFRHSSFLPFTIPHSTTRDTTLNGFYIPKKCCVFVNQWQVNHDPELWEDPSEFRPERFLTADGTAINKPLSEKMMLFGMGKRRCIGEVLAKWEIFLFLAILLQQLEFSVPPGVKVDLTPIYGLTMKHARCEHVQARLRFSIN
Description: as §1, §2, §3, §4, §5, §6, §7, §8

[4] = biological target: T4, CYP2D6 (Homo sapiens, UniProt P10635); assay: Cocktail assay for CYPs in human liver microsomes: CYP2D6 (dextromethorphan O-demethylation); details: 5 μM dextromethorphan, 10 min at 37° C., 6 concentrations up to 10 μM
T4 construct: 0.1 mg/mL protein human liver microsomes (BD Gentest); tissue BD Gentest; host or cells: human liver microsomes

[5] = biological target: T5, CYP3A4 (Homo sapiens, UniProt P08684); assay: Cocktail assay for CYPs in human liver microsomes: CYP3A4 (midazolam 1′-hydroxylation); details: 2 μM midazolam, 10 min at 37° C., 6 concentrations up to 10 μM
T5 construct: 0.1 mg/mL protein human liver microsomes (BD Gentest); tissue BD Gentest; host or cells: human liver microsomes
Description: as §1, §2, §3, §4, §5, §6, §7, §8

[6] = human liver microsomes 0.1 mg/mL, read-out: IC50 (nM) CYP2C9
[7] = human liver microsomes 0.1 mg/mL, read-out: IC50 (nM) CYP2C19
[8] = human liver microsomes 0.1 mg/mL, 10 μM phenacetin, 10 min at 37° C., 6 concentrations up to 10 μM, read-out: IC50 (nM) CYP1A2
[9] = human liver microsomes 0.1 mg/mL, read-out: IC50 (nM) CYP2D6
[10] = human liver microsomes 0.1 mg/mL, read-out: IC50 (nM) CYP3A4

T4 sequence (P10635 whole entry): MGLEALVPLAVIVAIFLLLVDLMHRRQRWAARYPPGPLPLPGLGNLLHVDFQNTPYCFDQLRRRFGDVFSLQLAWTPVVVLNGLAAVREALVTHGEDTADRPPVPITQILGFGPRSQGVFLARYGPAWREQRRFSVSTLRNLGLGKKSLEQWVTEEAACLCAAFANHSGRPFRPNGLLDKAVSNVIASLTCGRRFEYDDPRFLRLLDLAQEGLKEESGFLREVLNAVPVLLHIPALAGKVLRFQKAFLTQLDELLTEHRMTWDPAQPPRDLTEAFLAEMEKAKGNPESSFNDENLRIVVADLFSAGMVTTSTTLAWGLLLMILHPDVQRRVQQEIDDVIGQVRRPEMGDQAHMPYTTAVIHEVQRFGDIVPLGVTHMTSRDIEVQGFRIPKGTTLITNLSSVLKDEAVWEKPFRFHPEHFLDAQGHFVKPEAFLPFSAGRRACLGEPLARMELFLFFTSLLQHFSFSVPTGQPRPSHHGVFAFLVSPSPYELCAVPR
T2 sequence (P33261 whole entry): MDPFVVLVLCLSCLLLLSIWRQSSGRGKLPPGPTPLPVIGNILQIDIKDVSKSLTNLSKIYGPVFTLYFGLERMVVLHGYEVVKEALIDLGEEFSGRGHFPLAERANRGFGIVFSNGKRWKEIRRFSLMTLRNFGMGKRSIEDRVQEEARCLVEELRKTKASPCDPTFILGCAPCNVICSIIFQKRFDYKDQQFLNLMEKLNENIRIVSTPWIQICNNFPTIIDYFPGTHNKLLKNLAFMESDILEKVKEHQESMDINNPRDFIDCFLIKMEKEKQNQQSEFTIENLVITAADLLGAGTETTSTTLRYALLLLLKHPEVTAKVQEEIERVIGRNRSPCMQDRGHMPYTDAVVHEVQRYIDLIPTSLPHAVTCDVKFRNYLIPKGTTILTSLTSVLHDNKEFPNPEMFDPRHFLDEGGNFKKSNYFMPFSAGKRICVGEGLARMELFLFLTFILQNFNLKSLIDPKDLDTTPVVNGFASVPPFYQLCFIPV
T1 sequence (P11712 whole entry): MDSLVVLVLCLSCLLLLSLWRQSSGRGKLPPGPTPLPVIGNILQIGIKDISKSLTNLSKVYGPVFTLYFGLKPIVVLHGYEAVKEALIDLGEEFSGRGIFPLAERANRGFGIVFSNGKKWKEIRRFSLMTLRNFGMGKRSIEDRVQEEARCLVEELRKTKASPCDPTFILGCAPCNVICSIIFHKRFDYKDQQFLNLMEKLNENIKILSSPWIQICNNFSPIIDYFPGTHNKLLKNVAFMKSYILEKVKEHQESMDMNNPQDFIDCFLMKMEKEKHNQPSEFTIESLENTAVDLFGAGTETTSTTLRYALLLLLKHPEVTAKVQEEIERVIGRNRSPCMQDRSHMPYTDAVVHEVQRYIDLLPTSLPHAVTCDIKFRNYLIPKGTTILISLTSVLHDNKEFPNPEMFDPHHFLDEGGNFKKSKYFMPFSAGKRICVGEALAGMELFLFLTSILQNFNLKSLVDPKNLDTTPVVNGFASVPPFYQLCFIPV
T5 sequence (P08684 whole entry): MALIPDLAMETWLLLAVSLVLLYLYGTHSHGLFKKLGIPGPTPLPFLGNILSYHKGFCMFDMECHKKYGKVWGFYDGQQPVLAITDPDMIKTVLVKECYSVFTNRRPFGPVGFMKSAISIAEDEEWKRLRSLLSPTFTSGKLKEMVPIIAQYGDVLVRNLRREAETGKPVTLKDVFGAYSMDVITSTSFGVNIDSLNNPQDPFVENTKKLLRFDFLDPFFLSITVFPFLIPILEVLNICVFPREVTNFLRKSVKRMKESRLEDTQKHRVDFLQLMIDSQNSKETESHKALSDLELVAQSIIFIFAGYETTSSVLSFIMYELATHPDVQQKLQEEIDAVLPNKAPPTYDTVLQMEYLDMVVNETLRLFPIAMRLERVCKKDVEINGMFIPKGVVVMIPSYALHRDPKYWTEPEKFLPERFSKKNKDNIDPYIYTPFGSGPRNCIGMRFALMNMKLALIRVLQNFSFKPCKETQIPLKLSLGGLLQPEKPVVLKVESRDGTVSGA

SMILES | IC50 [1, 6] [nM] | IC50 [2, 7] [nM] | IC50 [3, 8] [nM] | IC50 [4, 9] [nM] | IC50 [5, 10] [nM] | IC50 ([1]; IC50 (nM) CYP2C9, human liver microsomes 0.1 mg/mL) [nM] | IC50 ([2]; IC50 (nM) CYP2C19, human liver microsomes 0.1 mg/mL) [nM] | IC50 [3] [nM] | IC50 ([4]; IC50 (nM) CYP2D6, human liver microsomes 0.1 mg/mL) [nM] | IC50 ([5]; IC50 (nM) CYP3A4, human liver microsomes 0.1 mg/mL) [nM]
CC1CN(Cc2cncn2[C@H](C)c2ccc(C#N)cc2)CC(C)N1C(=O)C1CC(F)(F)C1 (stereo partly drawn) [Compound 58, 4-((1R)-1-(5-((4-(3,3-difluorocyclo-butanecarbonyl)-3,5-dimethylpiperazin-1-yl)methyl)-1H-imidazol-1-yl)ethyl)benzonitrile] | 2570 | > 10000 | > 10000 | > 10000 | 7 | – | – | – | – | –
COC(=O)C1(c2ccccc2)CCN(Cc2cncn2[C@H](C)c2ccc(F)cc2)CC1 [Compound 15, (R)-methyl 1-((1-(1-(4-fluorophenyl)ethyl)-1H-imidazol-5-yl)methyl)-4-phenylpiperidine-4-carboxylate] | – | – | – | – | – | 1390 | 1250 | 2420 | 2080 | 16
COc1ccc(-c2nc(CN3CCN(Cc4cncn4[C@H](C)c4ccc(F)cc4)CC3=O)no2)cc1 [Compound 64, (R)-4-((1-(1-(4-fluorophenyl)ethyl)-1H-imidazol-5-yl)methyl)-1-((5-(4-methoxyphenyl)-1,2,4-oxadiazol-3-yl)methyl) piperazin-2-one] | 2860 | 4520 | 3590 | 3110 | 43 | – | – | – | – | –
N#Cc1ccc(C2(n3cncc3CN3CCN(c4nc5ccccc5o4)CC3)CC2)cc1 [Compound 25, 4-(1-(5-((4-(benzo[d]oxazol-2-yl)piperazin-1-yl)methyl)-1H-imidazol-1-yl)cyclopropyl) benzonitrile] | 9590 | > 10000 | > 10000 | 2910 | 28 | – | – | – | – | –
C[C@H](c1ccc(F)cc1)n1cncc1CN1CCC(C#N)(c2ccccn2)CC1 [Compound 13, (R)-1-((1-(1-(4-fluorophenyl)ethyl)-1H-imidazol-5-yl)methyl)-4-(pyridin-2-yl)piperidine-4-carbonitrile] | 4670 | 6400 | > 10000 | > 10000 | 10 | – | – | – | – | –
C[C@H](c1ccc(F)cc1)n1cncc1CN1CCN(c2ccccc2)[C@H](C(=O)N2CCCCC2)C1 [Compound 48] | 1470 | 2000 | > 10000 | 4890 | 31 | – | – | – | – | –
C[C@H](c1ccc(C#N)cc1)n1cncc1CN1CCN(c2nc3ccccc3o2)CC1 [Compound 24, (R)-4-(1-(5-((4-(benzo[d]oxazol-2-yl)piperazin-1-yl)methyl)-1H-imidazol-1-yl)ethyl) benzonitrile] | 3430 | 2260 | > 10000 | 3080 | 11 | – | – | – | – | –
CC(=O)N1CCN(Cc2cncn2C(C)c2ccccc2-c2ccc(F)cc2)CC1 (centres unmarked) [Compound 60, 1-(4-((1-(1-(4′-fluoro-[1,1′-biphenyl]-2-yl)ethyl)-1H-imidazol-5-yl)methyl)piperazin-1-yl)ethanone] | > 10000 | > 10000 | > 10000 | 4500 | 23 | – | – | – | – | –
C[C@H](c1ccc(C#N)cc1)n1cncc1CN1CCC(c2nc3ccccc3o2)CC1 [Compound 21, (R)-4-(1-(5-((4-(benzo[d]oxazol-2-yl)piperidin-1-yl)methyl)-1H-imidazol-1-yl)ethyl) benzonitrile] | 4080 | 8700 | > 10000 | 7520 | 35 | – | – | – | – | –
CC(Cn1cncc1CN1CCN(c2nc3ccccc3o2)CC1)C(F)(F)F (centres unmarked) [Compound 36, 2-(4-((1-(3,3,3-trifluoro-2-methylpropyl)-1H-imidazol-5-yl)methyl)piperazin-1-yl)benzo[d]oxazole] | 6980 | 4260 | > 10000 | 1720 | 45 | – | – | – | – | –
CC(C)C(C)n1cncc1CN1CCN(c2nc3ccccc3o2)CC1 (centres unmarked) [Compound 27, 2-(4-((1-(3-methylbutan-2-yl)-1H-imidazol-5-yl)methyl)piperazin-1-yl)benzo[d]oxazole] | > 10000 | > 10000 | > 10000 | 1760 | 9 | – | – | – | – | –
C[C@H](c1ccc(F)cc1)n1cncc1CN1CCC(C)(C#N)CC1 [Compound 3, (R)-1-((1-(1-(4-fluorophenyl)ethyl)-1H-imidazol-5-yl)methyl)-4-methylpiperidine-4-carbonitrile] | > 10000 | > 10000 | > 10000 | 8710 | 37 | – | – | – | – | –
Cc1noc(C2(C)CCN(Cc3cncn3[C@H](C)c3ccc(F)cc3)CC2)n1 [Compound 10, (R)-5-(1-((1-(1-(4-fluorophenyl)ethyl)-1H-imidazol-5-yl)methyl)-4-methylpiperidin-4-yl)-3-methyl-1,2,4-oxadiazole] | 2330 | 7020 | > 10000 | 2100 | 17 | – | – | – | – | –
C[C@H](c1ccc(F)cc1)n1cncc1CN1CCN(C(=O)c2ccccc2)C(c2ccccc2)C1 (single isomer, unassigned) [Compound 50b] | 1280 | 4400 | > 10000 | > 10000 | 5 | – | – | – | – | –
CC(C)CC1(C#N)CCN(Cc2cncn2[C@H](C)c2ccc(F)cc2)CC1 [Compound 8, (R)-1-((1-(1-(4-fluorophenyl)ethyl)-1H-imidazol-5-yl)methyl)-4-isobutylpiperidine-4-carbonitrile] | 2530 | 3250 | 9180 | 2490 | 22 | – | – | – | – | –
C[C@H](c1ccc(C#N)cc1)n1cncc1CN1CCN(c2nc3cccc(F)c3o2)CC1 [Compound 28, (R)-4-(1-(5-((4-(7-fluorobenzo[d]oxazol-2-yl)piperazin-1-yl)methyl)-1H-imidazol-1-yl)ethyl)benzonitrile] | 3870 | 3570 | > 10000 | 1110 | 10 | – | – | – | – | –
CCS(=O)(=O)CCc1cnc(N2CCN(Cc3cncn3[C@H](C)c3ccc(Cl)cc3)CC2)s1 [Compound 42, (R)-2-(4-((1-(1-(4-chloro-phenyl)ethyl)-1H-imidazol-5-yl)methyl)piperazin-1-yl)-5-(2-(ethyl-sulfonyl)ethyl)thiazole] | > 10000 | 2400 | > 10000 | 1660 | 22 | – | – | – | – | –
CC(C1CCOCC1)n1cncc1CN1CCN(c2nc3ccccc3o2)CC1 (centres unmarked) [Compound 32, 2-(4-((1-(1-(tetra-hydro-2H-pyran-4-yl)ethyl)-1H-imidazol-5-yl)methyl)piperazin-1-yl)benzo[d] oxazole] | > 10000 | > 10000 | > 10000 | > 10000 | 24 | – | – | – | – | –
Cc1cc(C(=O)N2CCN(Cc3cncn3[C@H](C)c3ccc(F)cc3)CC2c2ccccc2)no1 (stereo partly drawn) [Compound 49, (4-((1-((R)-1-(4-fluorophenyl)ethyl)-1H-imidazol-5-yl)methyl)-2-phenylpiperazin-1-yl)(5-methylisoxazol-3-yl)methanone] | 1810 | 2110 | > 10000 | > 10000 | 14 | – | – | – | – | –
C[C@H](c1ccc(F)cc1)n1cncc1CN1CCN(C(=O)C2CCOCC2)C(c2ccccc2)C1 (single isomer, unassigned) [Compound 52a] | > 10000 | 8490 | > 10000 | > 10000 | 7 | – | – | – | – | –
CC1(C#N)CCN(Cc2cncn2Cc2nc3ccccc3s2)CC1 [Compound 4, 1-((1-(benzo[d]thiazol-2-ylmethyl)-1H-imidazol-5-yl)methyl)-4-methylpiperidine-4-carbonitrile] | 3270 | 2680 | > 10000 | > 10000 | 58 | – | – | – | – | –
C[C@H](c1ccc(C#N)cc1)n1cncc1CN1CCN(c2ccccc2)C(C(=O)N2CCCCC2)C1 (single isomer, unassigned) [Compound 45a] | 7770 | 5500 | > 10000 | > 10000 | 12 | – | – | – | – | –
